Several values for one entry are separate records, joined by “and”; a condition that tells them apart may be missing. Equal entries are not always repeated. Entries after “also recorded” stand apart in the source; their conditions may differ.
Assays:
[1] = biological target: T1, PXR/NCOR2 (Homo sapiens, UniProt O75469); assay: Mammalian two-hybrid PXR/corepressor NCOR2 release, HepG2; format: cell-based; parameters: key: firefly/Metridia luciferase activity ratio (normalized)
T1 construct: PXR-LBD (residues 108–434); expressed in transfected cells; host or cells: HepG2
Protocol: The GAL4-dependent pGL4-G5, harboring a pentamer of GAL4 binding sites in front of the E1b promoter was described before.
Transient batch transfection of HepG2 cells was done as described above. […] All transfections included 0.01 µg pMetLuc2control per well for normalization of firefly luciferase reporter activities. After overnight incubation with the transfection mixtures, cells were treated with chemicals in a volume of 100 µl of cell culture medium. […] Firefly luciferase activity was measured in 10 µl of cell lysates, and Metridia luciferase activity was analyzed in 10 µl of medium supernatant, both as described before. Results were normalized by dividing firefly luciferase activity by Metridia luciferase activity measured from the same well. Measurements of samples were repeated several times (n ≥ 3).

[2] = system: PXB-mouse humanized liver mice (human hepatocytes); assay: PXB-mouse humanized liver mice study; format: in vivo; parameters: key to BW: body weight in g; Cho / CHO in LDL / CHO in HDL / CHO in VLDL / CHO in Chylom / TG / TG in LDL / TG in HDL / TG in VLDL / TG in Chylo / rel LW: unit not given here
Protocol: PXB-mouse® are mice with background genotype: cDNA-uPAwild/+/SCID [cDNA-uPAwild/+: B6;129SvEv-Plau, SCID: C.B-17/Icr-scid /scid Jcl]. Mice contain human hepatocytes with an estimated replacement index of 70% or more in the liver, which is calculated based on the blood concentration of human albumin (h-Alb). Human hepatocytes for the experiment were obtained from BD195 (Corning Incorporated, Tewksbury, MA, USA).
Male mice (n = 5 per group) were used for the experiments with the following characteristics: 19 to 23 weeks old on Day 0, body weights on Day 0 (19.3 to 22.3 g), and blood h-Alb Level (from 9.1 to 15.0 mg/mL).
MI-883 was applied in the following vehicle: corn oil (90%)/DMSO (5%)/PEG30 (5%) formulation of MI-883 2.5 mg/kg (1.5 mL) to treated animals. The same vehicle was used in the control group. MI-883 was applied via p.o. gavage using disposable plastic sondes (Fuchigami Kikai Co., Kyoto, Japan) at the dose of 2.5 mg/kg every day ([…] -day 0-Day 7).
The target volume of blood (200 μL) was collected from all subject animals under isoflurane anesthesia via the retro-orbital plexus/sinus using calibrated pipettes (Drummond Scientific Company, PA, USA) at each time point after 4 h of fasting. Isoflurane inhalation solution was also used at the terminal blood sampling. The livers were snap-frozen in two or more pieces in one tube in liquid nitrogen. These frozen liver samples were stored at −80 °C. Urine was directly collected from the urinary bladder using a syringe. Bile was directly collected from the gallbladder using a syringe.
Serum h-ALT1 concentration was determined based on an Enzyme-Linked ImmunoSorbent Assay (ELISA) developed by the Institute of Immunology Co., Ltd (Tokyo, Japan) (for details see Supplementary, Chapter 11).
The clinical chemistry analyzer (BioMajestyTM Series JCA-BM6050, JEOL Ltd., Tokyo, Japan) was used to measure the blood h-Alb. LipoSEARCH to determine the serum level of total cholesterol, triglyceride, chylomicron, VLDL, LDL, and HDL was performed by SkyLight Biotech (Akita, Japan). Serum h-ALT1 concentration was determined based on an Enzyme-Linked ImmunoSorbent Assay (ELISA) developed by the Institute of Immunology Co., Ltd. (Tokyo, Japan). SpectraMax® ABS Plus Microplate Readers (Molecular Devices LLC, San Jose, CA, USA) were used for this measurement.

[3] = biological target: ERα (Homo sapiens, UniProt P03372); assay: Luciferase reporter gene assay ERα, HepG2; format: cell-based
Text: (see Supplementary Chapter 7).
Thank you for the insightful question and comment. We have corrected the sentence to read:
Thank you for the idea. Yes, we conducted luciferase reporter assays in antagonistic "mode" for several nuclear receptors using their prototype ligands in the revised manuscript (Figure R7).
This information is included in the Supplementary Information.
Treatment with 5 and 10 µM
(1 picture or pasted object on this page, not shown here) […]
nM dexamethasone, 10 µM GW3965 (LXRα agonist), and 10 µM estradiol. Data are presented as a […]

[4] = system: 3D primary human hepatocyte spheroids; assay: ATP production and spheroid size in 3D PHH spheroids; format: cell-based
Protocol: Briefly, PHHs were cultivated for 6 days to generate compact spheroids by spontaneous self-aggregation and then half of PHH medium was exchanged for FBS-free PHH medium. 3D PHHs were treated with MI-883 (5 μM) commenced from day 8 within a time range of 8–120 h (time points were 8, 12, 24, 48, 72, and 120 h). Conditioned FBS-free PHH medium was changed every 2–3 days of the treatment. […] Data are presented as the mean ± SD of fold change expression gained from 3D spheroids of three different donors. ATP assay has been performed as described.

[5] = biological target: GRα (Homo sapiens, UniProt P04150); assay: Luciferase reporter gene assay GRα, HepG2; settings: ligand: Dexamethasone 100 nM
Text: Gal4-LBD constructs of tested nuclear receptors have been used together with pGL4.31[luc2P/GAL4UAS/Hygro] luciferase reporter construct and pRL-TK Renilla expression vector (both from Promega, Hercules, USA) in HepG2 cells transfected with Lipofectamine 2000 or 3000 reagents. For GRα and FXR receptors, full-length expression vectors have been used with pGRE-luc or pFXRE-luc luciferase constructs. For the aryl hydrocarbon receptor (AhR), p1A1-luc construct was used with only pRL-TK vector for transfection normalization. A dual reporter assay (Promega, Hercules, USA) was used to analyze both firefly and Renilla luciferase activities.
Gal4-LBD constructs of tested nuclear receptors have been used together with pGL5-luc luciferase reporter construct and pRL-TK Renilla expression vector in HepG2 cells transfected with Lipofectamine 2000 or 3000 reagents. For GRα and FXR receptors, full-length expression vectors have been used with pGRE-luc or pFXRE-luc luciferase constructs. For the aryl hydrocarbon receptor (AhR), p1A1-luc construct was used with only pRL-TK vector for transfection normalization. […] Bars represent means±S.D. (n=3).

[6] = 2.5 mg/kg per day, one week, n = 5
[7] = FigS15, humanized liver mice, individual animals
[8] = FigS15, plasma total, individual animals
[9] = FigS15, plasma, individual animals
[10] = FigS17, individual animals, relative to control
[11] = humanized Liver mice, human gene, relative to control, individual animals
[12] = humanized Liver mice, mouse gene, relative to control, individual animals

Sequence of ERα (P03372 311-547 limits assumed, species assumed): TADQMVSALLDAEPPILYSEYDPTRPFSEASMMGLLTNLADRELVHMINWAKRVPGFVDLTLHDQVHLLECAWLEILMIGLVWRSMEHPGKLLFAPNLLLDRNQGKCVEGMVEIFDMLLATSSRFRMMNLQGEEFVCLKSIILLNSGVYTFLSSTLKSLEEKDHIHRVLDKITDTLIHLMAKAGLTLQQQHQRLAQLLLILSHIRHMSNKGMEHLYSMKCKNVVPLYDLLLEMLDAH
Sequence of GRα (P04150 whole entry): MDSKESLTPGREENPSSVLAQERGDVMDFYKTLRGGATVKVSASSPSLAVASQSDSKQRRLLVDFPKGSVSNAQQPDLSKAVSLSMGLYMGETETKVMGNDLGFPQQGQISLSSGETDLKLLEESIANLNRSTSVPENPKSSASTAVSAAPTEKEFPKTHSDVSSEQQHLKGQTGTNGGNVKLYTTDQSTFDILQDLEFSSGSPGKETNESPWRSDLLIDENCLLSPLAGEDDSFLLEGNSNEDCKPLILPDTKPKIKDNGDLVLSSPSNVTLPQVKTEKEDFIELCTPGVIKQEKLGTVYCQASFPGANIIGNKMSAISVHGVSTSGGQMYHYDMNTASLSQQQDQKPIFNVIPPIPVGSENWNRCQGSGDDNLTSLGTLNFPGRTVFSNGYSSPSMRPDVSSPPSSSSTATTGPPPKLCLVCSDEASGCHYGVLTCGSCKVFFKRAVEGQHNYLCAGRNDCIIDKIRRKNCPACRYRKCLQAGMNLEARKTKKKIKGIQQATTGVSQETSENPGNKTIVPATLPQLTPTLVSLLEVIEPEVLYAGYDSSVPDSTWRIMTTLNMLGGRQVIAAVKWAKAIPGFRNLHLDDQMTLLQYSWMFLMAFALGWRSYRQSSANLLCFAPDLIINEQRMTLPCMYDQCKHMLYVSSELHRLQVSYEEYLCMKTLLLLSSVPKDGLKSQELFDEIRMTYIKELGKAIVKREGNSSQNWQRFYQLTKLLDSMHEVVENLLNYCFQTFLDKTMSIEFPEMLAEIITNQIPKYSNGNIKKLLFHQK
T1 sequence (O75469 108-434): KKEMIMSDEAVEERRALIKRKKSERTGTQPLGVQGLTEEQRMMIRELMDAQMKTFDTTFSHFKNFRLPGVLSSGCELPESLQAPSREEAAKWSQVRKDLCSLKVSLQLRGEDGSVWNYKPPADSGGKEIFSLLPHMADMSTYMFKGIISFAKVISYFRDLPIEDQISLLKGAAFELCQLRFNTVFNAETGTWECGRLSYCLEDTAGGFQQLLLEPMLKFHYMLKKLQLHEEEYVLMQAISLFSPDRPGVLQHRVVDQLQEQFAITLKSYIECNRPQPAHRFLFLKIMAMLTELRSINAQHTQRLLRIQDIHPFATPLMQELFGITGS
T1 sequence (P19793 whole entry partner, the tested form may be a part): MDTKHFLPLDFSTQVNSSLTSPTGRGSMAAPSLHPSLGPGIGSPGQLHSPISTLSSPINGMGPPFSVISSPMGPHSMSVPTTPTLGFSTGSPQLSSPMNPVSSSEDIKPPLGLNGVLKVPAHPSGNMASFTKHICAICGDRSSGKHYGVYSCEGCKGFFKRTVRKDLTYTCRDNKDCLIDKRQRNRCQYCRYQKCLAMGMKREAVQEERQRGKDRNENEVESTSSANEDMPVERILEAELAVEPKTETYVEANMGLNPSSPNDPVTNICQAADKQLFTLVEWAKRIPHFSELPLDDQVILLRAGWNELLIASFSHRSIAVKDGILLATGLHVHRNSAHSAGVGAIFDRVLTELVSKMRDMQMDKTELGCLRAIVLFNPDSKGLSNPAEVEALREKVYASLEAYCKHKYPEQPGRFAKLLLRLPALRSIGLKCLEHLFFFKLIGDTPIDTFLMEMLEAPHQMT

NC(=O)c1cc(Cn2cc(-c3c(-c4ccc(Cl)cc4)nc4cc(F)ccn34)nn2)ccc1Cl [MI-883, 2-chloro-5-((4-(2-(4-chlorophenyl)-7-fluoroimidazo[1,2-a]pyridin-3-yl)-1H-1,2,3-triazol-1-yl)methyl)benzamide]
PXR/NCOR2 (SMRT) two-hybrid activity, replicates ([1]; MI-883 30 μM): 0.575 and 0.629 and 0.672 and 0.562 and 0.437
PXR/NCOR2 (SMRT) two-hybrid activity, replicates ([1]; single agent: RIF (10 µM), MI-883 10 μM): 0.59 and 0.547 and 0.723 and 0.544 and 0.703
liver enlargement (LW/BW ratio) in PXB humanized liver mice ([2]; 2.5 mg/kg every day, 7 days): did not observe significant liver enlargement
proliferative biomarkers MDM2, PCNA, FOXM1 in PXB humanized liver mice ([2]; 2.5 mg/kg every day, 7 days): no significant effects
human albumin or human ALT (h-ALT1) ([2]; 2.5 mg/kg per day, one week): did not observe any increase
LDL and HDL cholesterol plasma concentrations in PXB mice [2, 6]: tendency for a decrease in LDL and an increase in HDL
total cholesterol concentration in PXB mice [2, 6]: did not reach statistical significance
BW [2, 7]: 21.1 and 21.2 and 18.9 and 21.4
rel LW [2, 7]: 12.7 and 13.9 and 18.9 and 13.7 and 15.2
h-ALT1 ([2]; FigS15, plasma biochemistry, individual animals): 32.4 and 23.1 and 36 and 38.8 and 27.9
Cho [2, 8]: 59.5 and 63.3 and 87.8 and 100.6 and 69.3
TG [2, 8]: 79.5 and 114.8 and 91.5 and 67.5 and 118.2
CHO in Chylom [2, 9]: 0.4 and 0.8 and 0.7 and 0.6
CHO in HDL [2, 9]: 16 and 14.3 and 11.7 and 8 and 13.8
CHO in LDL [2, 9]: 26.1 and 26.5 and 51.9 and 65.5 and 32.2
CHO in VLDL [2, 9]: 17 and 21.7 and 23.6 and 26.5 and 22.7
TG in Chylo [2, 9]: 2.6 and 5 and 3.9 and 2.5 and 3.5
TG in HDL [2, 9]: 3.2 and 3.7 and 4.2 and 3.6 and 4.3
TG in LDL [2, 9]: 30.8 and 34.5 and 34.1 and 36.7 and 34
TG in VLDL [2, 9]: 43 and 71.6 and 49.3 and 24.6 and 76.4
ABCC4 mRNA (RT-qPCR in humanized liver mice) [2, 10]: 1.98 and 1.27 and 2.64 and 0.98 and 0.66
CYP2B6 mRNA (RT-qPCR in humanized liver mice) [2, 10]: 7.04 and 2.86 and 13.89 and 12.41 and 7.61
CYP3A4 mRNA (RT-qPCR in humanized liver mice) [2, 10]: 0.35 and 0.63 and 1.62 and 10.03 and 6.65
HMGCR1 mRNA (RT-qPCR in humanized liver mice) [2, 10]: 0.23 and 0.46 and 0.39 and 0.62 and 1.11
HMGCS2 mRNA (RT-qPCR in humanized liver mice) [2, 10]: 3.19 and 1.63 and 2.91 and 2.97 and 2.16
LDLR mRNA (RT-qPCR in humanized liver mice) [2, 10]: 1.63 and 0.66 and 1.69 and 2.23 and 2.34
SREBF1 mRNA (RT-qPCR in humanized liver mice) [2, 10]: 0.27 and 0.47 and 0.58 and 0.76 and 1.32
UGT1A1 mRNA (RT-qPCR in humanized liver mice) [2, 10]: 3.46 and 1.67 and 5.52 and 2.7 and 2.14
CYP2B6 mRNA in PXB humanized mice ([2]; Supplementary Fig. 17): upregulation
CYP3A4 mRNA in PXB humanized mice ([2]; Supplementary Fig. 17): have not significantly changed; also recorded: not statistically significant induction
Foxm1 RT-qPCR (Fig. 7d) [2, 11]: 1.35 and 2.21 and 1.02 and 0.71 and 2.23
MKI67 RT-qPCR (Fig. 7d) [2, 11]: 0.96 and 0.82 and 1.24 and 0.52 and 0.59
Foxm1 RT-qPCR (Fig. 7d) [2, 12]: 0.92 and 1.07 and 0.75 and 0.53 and 0.33
Mki67 RT-qPCR (Fig. 7d) [2, 12]: 1.24 and 0.62 and 1.46 and 0.36 and 0.17
NRs assays: ERalpha (relative to ctrl, replicates) [3]: 0.77 and 1.06 and 0.79
inhibition of estrogen receptor alpha (ERα), antagonistic mode ([3]; 10 μM MI-883): weak inhibitor
spheroid size or ATP production in 3D PHHs ([4]; 5 μM, 72 h): did not see any decrease
Fig. 7c readout relative to control (control 100) ([4]; 5 uM, three replicates, control = 100): 92.8 and 153.7 and 124.1
NRs assays: GRa (relative to ctrl, replicates) [5]: 0.97 (2×) and 1.03
